In US7250410B2, “Cyclic nucleotide phosphodiesterase inhibitors, preparation and uses thereof” (Via Pharmaceuticals, Inc., priority 2001, dated 2007):
“And” between values parts separate entries of the source, which are not always exact repeats. Equal entries are not always repeated.

The compounds below were run against PDE4 (assay: Inhibition of PDE4, radioenzymatic phosphodiesterase assay). Settings: Table 3, formula (II); 1 μM cyclic AMP.
Assay type: biochemical, bovine
Method: A 3 g segment of bovine aortic media cut into pieces with scissors was homogenized with an ultra-turrax then a potter glass/glass homogenizer in 7 volumes by weight of buffer A containing a protease inhibitor cocktail (20 mM Tris-HCl, 0.25 M saccharose, 2 mM magnesium acetate, 1 mM dithiothreitol, 5 mM EGTA, 2000 U/ml aprotinin, 10 mg/l leupeptin and 10 mg/l soya trypsic inhibitor). The homogenizate was centrifuged at 105,000 g for 1 hour. […] The column was washed until there was no detectable absorption at 280 nm, then eluted with a linear gradient of NaCl (0–0.5 M) in buffer B. 3-ml fractions were collected and enzyme activity was determined under the conditions described hereinafter to localize the different enzymes PDE1, PDE3, PDE4 and PDE5, which were aliquoted and frozen at −80° C.
The nucleoside formed was separated from the nucleotides by anion exchange chromatography. Nucleoside radioactivity was determined by liquid scintillation counting.

SMILES	IC50
CCN1C(=O)C(C(O)(c2ccccc2)c2ccccc2)N=C(c2ccccc2)c2cc(OC)c(OC)cc21 (stereo not drawn) [IIby, 7,8-dimethoxy-3-(diphenylhydroxymethyl)-1-ethyl-5-phenyl-1,3-dihydro-2H-1,4-benzodiazepin-2-one]	8.2 µM
CCN1C(=O)C(Cc2ccccc2N)N=C(c2ccccc2)c2cc(OC)c(OC)cc21 (stereo not drawn) [IIca, 7,8-dimethoxy-1-ethyl-3-(2-aminobenzyl)-5-phenyl-1,3-dihydro-2H-1,4-benzodiazepin-2-one]	2.5 µM
CCN1C(=O)C(Cc2ccccc2Br)N=C(c2ccccc2)c2cc(OC)c(OC)cc21 (stereo not drawn) [IIcc, 3-(2-bromobenzyl)-1-ethyl-7,8-dimethoxy-5-phenyl-1,3-dihydro-2H-1,4-benzodiazepin-2-one]	4.97 µM
CCN1C(=O)C(Cc2ccccc2C#N)N=C(c2ccccc2)c2cc(OC)c(OC)cc21 (stereo not drawn) [IIce, 3-(2-cyanobenzyl)-7,8-dimethoxy-1-ethyl-5-phenyl-1,3-dihydro-2H-1,4-benzodiazepin-2-one]	0.88 µM and 1.4 µM
CCN1C(=O)C(Cc2ccccc2CN)N=C(c2ccccc2)c2cc(OC)c(OC)cc21 (stereo not drawn) [IIcg, 3-(2-aminomethylbenzyl)-7,8-dimethoxy-1-ethyl-5-phenyl-1,3-dihydro-2H-1,4-benzodiazepin-2-one]	6.7 µM
CCN1C(=O)C(C(O)c2cccc(Br)c2)N=C(c2ccccc2)c2cc(OC)c(OC)cc21 (stereo not drawn) [IIch, 3-[(3-bromophenyl)(hydroxy)methyl]-1-ethyl-7,8-dimethoxy-5-phenyl-1,3-dihydro-2H-1,4-benzodiazepin-2-one]	9.6 µM
CCN1C(=O)C(Cc2cccc(Br)c2)N=C(c2ccccc2)c2cc(OC)c(OC)cc21 (stereo not drawn) [IIcj, 3-(3-bromobenzyl)-1-ethyl-7,8-dimethoxy-5-phenyl-1,3-dihydro-2H-1,4-benzodiazepin-2-one]	3.76 µM
COc1cc2c(cc1OC)C(c1ccccc1)=NC(c1ccccc1CCNC(C)=O)C(=O)N2 (stereo not drawn) [IIcm, N-[2-(7,8-dimethoxy-2-oxo-5-phenyl-2,3-dihydro-1H-1,4-benzodiazepin-3-yl)benzyl]methylacetamide]	1.9 µM
CCN1C(=O)C(Cc2cccc(C#N)c2)N=C(c2ccccc2)c2cc(OC)c(OC)cc21 (stereo not drawn) [IIcp, 3-[(1-ethyl-7,8-dimethoxy-2-oxo-5-phenyl-2,3-dihydro-1H-1,4-benzodiazepin-3-yl)methyl]benzonitrile]	9.2 µM
CCN1C(=O)C(Cc2ccccc2)N=C(c2ccccc2)c2cc(OC)c(OC)cc21 (stereo not drawn) [IIcq, 3-benzyl-1-ethyl-7,8-dimethoxy-5-phenyl-1,3-dihydro-2H-1,4-benzodiazepin-2-one]	7.4 µM
CCN1C(=O)C(Cc2ccccc2OC)N=C(c2ccccc2)c2cc(OC)c(OC)cc21 (stereo not drawn) [IIcr, 1-ethyl-7,8-dimethoxy-3-(2-methoxybenzyl)-5-phenyl-1,3-dihydro-2H-1,4-benzodiazepin-2-one]	2.7 µM
CCN1C(=O)C(Cc2cccc(C(N)=O)c2)N=C(c2ccccc2)c2cc(OC)c(OC)cc21 (stereo not drawn) [IIcs, 3-[(1-ethyl-7,8-dimethoxy-2-oxo-5-phenyl-2,3-dihydro-1H-1,4-benzodiazepin-3-yl)methyl]benzamide]	1.25 µM
CCN1C(=O)C(Cc2cccc(-c3ccccc3)c2)N=C(c2ccccc2)c2cc(OC)c(OC)cc21 (stereo not drawn) [IIcu, 3-(1,1′-biphenyl-3-ylmethyl)-1-ethyl-7,8-dimethoxy-5-phenyl-1,3-dihydro-2H-1,4-benzodiazepin-2-one]	4.8 µM
CCOc1cc2c(cc1OCC)N(CC)C(=O)C(Cc1ccccc1)N=C2c1ccccc1 (stereo not drawn) [IIcv, 3-benzyl-7,8-diethoxy-1-ethyl-5-phenyl-1,3-dihydro-2H-1,4-benzodiazepin-2-one]	3.1 µM
CCN1C(=O)C(Cc2ccccc2Cl)N=C(c2ccccc2)c2cc(OC)c(OC)cc21 (stereo not drawn) [IIcy, 3-(2-chlorobenzyl)-1-ethyl-7,8-dimethoxy-5-phenyl-1,3-dihydro-2H-1,4-benzodiazepin-2-one]	2.8 µM
CCN1C(=O)C(Cc2ccccc2C)N=C(c2ccccc2)c2cc(OC)c(OC)cc21 (stereo not drawn) [IIcz, 1-ethyl-7,8-dimethoxy-3-(2-methylbenzyl)-5-phenyl-1,3-dihydro-2H-1,4-benzodiazepin-2-one]	4.4 µM
CCN1C(=O)C(Cc2cccc(C(F)(F)F)c2)N=C(c2ccccc2)c2cc(OC)c(OC)cc21 (stereo not drawn) [IIdb, 1-ethyl-7,8-dimethoxy-5-phenyl-3-[3-(trifluoromethyl)benzyl]-1,3-dihydro-2H-1,4-benzodiazepin-2-one]	23 µM
CCN1C(=O)C(Cc2cccc(OC)c2)N=C(c2ccccc2)c2cc(OC)c(OC)cc21 (stereo not drawn) [IIdc, 1-ethyl-7,8-dimethoxy-3-(3-methoxybenzyl)-5-phenyl-1,3-dihydro-2H-1,4-benzodiazepin-2-one]	5.1 µM
CCOc1cc2c(cc1OC)C(c1ccccc1)=NC(Cc1cccc(C#N)c1)C(=O)N2C (stereo not drawn) [IIdf, 3-[(8-ethoxy-7-methoxy-1-methyl-2-oxo-5-phenyl-2,3-dihydro-1H-1,4-benzodiazepin-3-yl)methyl]benzonitrile]	1.5 µM
CCOc1cc2c(cc1OC)C(c1ccccc1)=NC(Cc1ccccc1C#N)C(=O)N2C (stereo not drawn) [IIdg, 2-[(8-ethoxy-7-methoxy-1-methyl-2-oxo-5-phenyl-2,3-dihydro-1H-1,4-benzodiazepin-3-yl)methyl]benzonitrile]	1.1 µM
CCN1C(=O)C(Cc2cc(Cl)ccc2Cl)N=C(c2ccccc2)c2cc(OC)c(OC)cc21 (stereo not drawn) [IIdi, 3-(2,5-dichlorobenzyl)-7,8-dimethoxy-1-ethyl-5-phenyl-1,3-dihydro-2H-1,4-benzodiazepin-2-one]	8.15 µM

Same assay, conditions: Table 3, formula (II); compound at 10 μM

SMILES	PDE4 percentage inhibition at 10 μM [%]
CCN1C(=O)C(Cc2cc(Br)cc(Br)c2)N=C(c2ccccc2)c2cc(OC)c(OC)cc21 (stereo not drawn) [IIbx, 3-(3,5-dibromobenzyl)-7,8-dimethoxy-1-ethyl-5-phenyl-1,3-dihydro-2H-1,4-benzodiazepin-2-one]	18
CCN1C(=O)C(C/C=C/c2ccccc2)N=C(c2ccccc2)c2cc(OC)c(OC)cc21 (stereo not drawn) [IIbz, 7,8-dimethoxy-1-ethyl-3-(E-3-phenylpropen-2yl)-5-phenyl-1,3-dihydro-2H-1,4-benzodiazepin-2-one]	42.3
CCN1C(=O)C(CC#N)N=C(c2ccccc2)c2cc(OC)c(OC)cc21 (stereo not drawn) [IIcb, (1-ethyl-7,8-dimethoxy-2-oxo-5-phenyl-2,3-dihydro-1H-1,4-benzodiazepin-3-yl)acetonitrile]	28.5
CCN1C(=O)C(Cc2ccc(Br)cc2)N=C(c2ccccc2)c2cc(OC)c(OC)cc21 (stereo not drawn) [IIcd, 3-(4-bromobenzyl)-1-ethyl-7,8-dimethoxy-5-phenyl-1,3-dihydro-2H-1,4-benzodiazepin-2-one]	20.1
COc1cc2c(cc1OC)C(c1ccccc1)=NC(c1ccccc1CNC(C)=O)C(=O)N2 (stereo not drawn) [IIcf, N-[2-(7,8-dimethoxy-2-oxo-5-phenyl-2,3-dihydro-1H-1,4-benzodiazepin-3-yl)benzyl]acetamide]	21
CCN1C(=O)C(Cc2ccc(-c3ccccc3)cc2)N=C(c2ccccc2)c2cc(OC)c(OC)cc21 (stereo not drawn) [IIck, 3-(1,1′-biphenyl-4-ylmethyl)-1-ethyl-7,8-dimethoxy-5-phenyl-1,3-dihydro-2H-1,4-benzodiazepin-2-one]	32.2
CCN1C(=O)C(C2(O)CCN(Cc3ccccc3)CC2)N=C(c2ccccc2)c2cc(OC)c(OC)cc21 (stereo not drawn) [IIcl, 3-(1-benzyl-4-hydroxypiperidin-4-yl)-1-ethyl-7,8-dimethoxy-5-phenyl-1,3-dihydro-2H-1,4-benzodiazepin-2-one]	4.3
CCN1C(=O)C(Cc2ccc(Cl)cc2Cl)N=C(c2ccccc2)c2cc(OC)c(OC)cc21 (stereo not drawn) [IIco, 3-(2,4-dichlorobenzyl)-7,8-dimethoxy-1-ethyl-5-phenyl-1,3-dihydro-2H-1,4-benzodiazepin-2-one]	34.3
CCN1C(=O)C(Cc2cccc(CN)c2)N=C(c2ccccc2)c2cc(OC)c(OC)cc21 (stereo not drawn) [IIct, 3-[3-(aminomethyl)benzyl]-1-ethyl-7,8-dimethoxy-5-phenyl-1,3-dihydro-2H-1,4-benzodiazepin-2-one]	18
CCN1C(=O)C(CC(N)=O)N=C(c2ccccc2)c2cc(OC)c(OC)cc21 (stereo not drawn) [IIcw, 2-(1-ethyl-7,8-dimethoxy-2-oxo-5-phenyl-2,3-dihydro-1H-1,4-benzodiazepin-3-yl)acetamide]	9.4
COc1cc2c(cc1OC)N(CCO)C(=O)CN=C2c1ccccc1 [IIcx, 7,8-dimethoxy-1-(2-hydroxyethyl)-5-phenyl-1,3-dihydro-2H-1,4-benzodiazepin-2-one]	9.9
CCN1C(=O)C(Cc2ccc(C)cc2)N=C(c2ccccc2)c2cc(OC)c(OC)cc21 (stereo not drawn) [IIdd, 1-ethyl-7,8-dimethoxy-3-(4-methylbenzyl)-5-phenyl-1,3-dihydro-2H-1,4-benzodiazepin-2-one]	31.5
CCN1C(=O)C(C(Cc2ccc(Br)cc2)c2ccc(Br)cc2)N=C(c2ccccc2)c2cc(OC)c(OC)cc21 (stereo not drawn) [IIde, 3-[1,2-bis(4-bromophenyl)ethyl]-1-ethyl-7,8-dimethoxy-5-phenyl-1,3-dihydro-2H-1,4-benzodiazepin-2-one]	0
COc1cc2c(cc1OC)N(C)C(=O)[C@H](Cc1ccccc1)N=C2c1ccccc1 [IIdj, (S)-3-benzyl-7,8-dimethoxy-1-methyl-5-phenyl-1,3-dihydro-2H-1,4-benzodiazepin-2-one]	48.3

Same assay, conditions: Table 3, formula (II); compound at 10 μM; 10 µM

SMILES	PDE4 percentage inhibition at 10 μM [%]
CCN1C(=O)C(Cc2ccc(Cl)cc2)N=C(c2ccccc2)c2cc(OC)c(OC)cc21 (stereo not drawn) [IIcn, 3-(4-chlorobenzyl)-1-ethyl-7,8-dimethoxy-5-phenyl-1,3-dihydro-2H-1,4-benzodiazepin-2-one]	45
